Measured values from US20090054403A1, “Treatment of Post-Traumatic Stress Disorder” (priority 2007, published 2009).

What was measured:
[1] = system: tissue norepinephrine and dopamine levels; test: Tissue catecholamines in iodine-deficient rats after 10 days b.i.d. dosing; type: in vivo, Sprague-Dawley rats; details: day 10; for dopamine/norepinephrine ratio vs vehicle, mesenteric artery: hydrochloride
Procedure: Male Sprague-Dawley rats, weighing 180-200 grams, were fed an iodine deficient diet (Purina, 5891C, Lot 1478, 0.066±0.042 mg iodine/kg sample) ad libitum 14 days prior to treatment. Animals were weighed and randomly assigned to one of the following treatment groups (n=12 per group): Nepicastat at 2.0 mg/kg, Nepicastat at 6.2 mg/kg, R, Methimazole at 1 mg/kg, or vehicle at 1 ml/kg. Each group of rats was dosed orally in the evening and the following morning, approximately 12 hours apart, for 10 consecutive days.
At four hours after the second dose, on day 10, rats were anesthetized with halothane, decapitated, and the cortex, striatum, and mesenteric artery were harvested and weighed. Tissue samples were not harvested from the methimazole groups as they only served as positive controls for determination of thyroid function. The mesenteric artery, cortex, and striatum were immediately placed in 0.4M iced perchloric acid and analyzed for norepinephrine and dopamine levels the same day using HPLC.
To statistically evaluate changes in T3 and T4 levels, a change from baseline was calculated from the day-3 time point. A non-parametric two-way within subject analysis of variance (ANOVA) was conducted. Also a one-way ANOVA was performed to detect if a significant difference from control occurred. Pairwise analyses between controls and each treatment group were carried out using Fisher's LSD strategy to control the experiment-wise error rate. For statistical analysis of catecholamine levels, a one-way ANOVA with factor DOSE was performed. Pairwise analyses between treated and controls at each dose were carried out using Fisher's LSD strategy to control the experiment-wise error rate.

⊕1B adrenoceptors = ⊕1B adrenoceptors (Homo sapiens, UniProt P35368); test: Radioligand binding assay
⊕1B adrenoceptors, sequence (P35368 whole entry): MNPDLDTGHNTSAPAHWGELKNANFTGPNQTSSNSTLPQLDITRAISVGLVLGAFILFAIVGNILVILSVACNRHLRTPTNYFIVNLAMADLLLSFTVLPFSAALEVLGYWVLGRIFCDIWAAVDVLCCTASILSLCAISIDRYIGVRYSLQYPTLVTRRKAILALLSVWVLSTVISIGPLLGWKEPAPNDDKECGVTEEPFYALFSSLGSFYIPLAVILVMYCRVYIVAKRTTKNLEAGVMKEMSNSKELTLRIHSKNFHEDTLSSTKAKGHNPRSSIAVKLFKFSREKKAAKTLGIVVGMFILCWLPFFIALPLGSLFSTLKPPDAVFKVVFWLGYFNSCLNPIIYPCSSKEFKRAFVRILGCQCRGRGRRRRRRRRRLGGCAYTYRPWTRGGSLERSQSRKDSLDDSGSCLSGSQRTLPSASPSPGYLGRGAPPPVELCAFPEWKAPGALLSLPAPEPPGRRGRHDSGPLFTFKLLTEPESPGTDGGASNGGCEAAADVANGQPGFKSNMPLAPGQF
Procedure: (§1) The activity of nepicastat at twelve selected enzymes and receptors was determined using established assays. Details of individual receptor radioligand binding assays can be found in Wong et al (1993). Binding data were analyzed by iterative curve-fitting to a four parameter logistic equation. Ki values were calculated from IC50 values using the Cheng-Prusoff equation. Enzyme inhibitory activity was expressed as IC50 (concentration required to produce 50% inhibition of enzyme activity). Male SHRs (15-16 weeks old, Charles River, Wilmington, Mass., USA) were used in the study. On the day of the study, animals were weighed and randomly assigned to be dosed with either vehicle (control) or the appropriate dose of nepicastat (3, 10, 30 or 100 mg.kg^−1, po) or (R)-5-Aminomethyl-1-(5,7-difluoro-1,2,3,4-tetrahydronaphth-2-yl)-2,3-dihydro-2-thioxo-1H-imidazole hydrochloride (30 mg.kg^−1, po) three consecutive times, twelve hours apart. At six hours after the third dose, the rats were anaesthetized with halothane, decapitated and tissues (cerebral cortex, mesenteric artery and left ventricle) were rapidly harvested, weighed, placed in iced perchloric acid (0.4 M), frozen in liquid nitrogen and stored at −70° C. until subsequent analysis. To quantify noradrenaline and dopamine concentrations, tissues were homogenized by brief sonication and centrifuged at 13,000 rpm for 30 minutes at 4° C. The supernatant, spiked with 3,4-dihydroxybenzylamine (internal standard), was assayed for noradrenaline and dopamine by HPLC using electrochemical detection.
(§2) In vitro assay of selected enzymes and neurotransmitter receptors. The activity of 2a at eleven different enzymes was determined using established assays (PanLabs Inc, Foster City, Calif.). The affinity of 2a for thirteen selected receptors was determined by radioligand binding assays using standard filtration techniques and membrane preparations. Binding data were analyzed by iterative curve fitting to a four parameter logistic equation. Ki values were calculated using the Cheng-Prusoff equation.

[2] = molecular target: 5-HT1A serotonin receptors (Homo sapiens, UniProt P08908); test: Radioligand binding assay
5-HT1A serotonin receptors, sequence (P08908 whole entry): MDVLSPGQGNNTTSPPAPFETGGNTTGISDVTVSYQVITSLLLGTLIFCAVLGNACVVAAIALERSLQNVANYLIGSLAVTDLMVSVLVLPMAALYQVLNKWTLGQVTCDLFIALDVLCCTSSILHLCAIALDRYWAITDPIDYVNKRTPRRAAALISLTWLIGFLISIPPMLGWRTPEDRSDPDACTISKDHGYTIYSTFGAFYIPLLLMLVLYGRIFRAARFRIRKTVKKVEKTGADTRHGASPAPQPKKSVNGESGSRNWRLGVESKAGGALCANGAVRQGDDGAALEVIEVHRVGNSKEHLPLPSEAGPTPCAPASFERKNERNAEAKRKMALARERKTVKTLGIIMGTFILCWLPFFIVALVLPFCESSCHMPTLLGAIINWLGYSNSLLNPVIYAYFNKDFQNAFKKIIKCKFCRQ
Procedure: as §1, §2

β2 adrenoceptors = β2 adrenoceptors (Homo sapiens, UniProt P07550); test: Radioligand binding assay
β2 adrenoceptors, sequence (P07550 whole entry): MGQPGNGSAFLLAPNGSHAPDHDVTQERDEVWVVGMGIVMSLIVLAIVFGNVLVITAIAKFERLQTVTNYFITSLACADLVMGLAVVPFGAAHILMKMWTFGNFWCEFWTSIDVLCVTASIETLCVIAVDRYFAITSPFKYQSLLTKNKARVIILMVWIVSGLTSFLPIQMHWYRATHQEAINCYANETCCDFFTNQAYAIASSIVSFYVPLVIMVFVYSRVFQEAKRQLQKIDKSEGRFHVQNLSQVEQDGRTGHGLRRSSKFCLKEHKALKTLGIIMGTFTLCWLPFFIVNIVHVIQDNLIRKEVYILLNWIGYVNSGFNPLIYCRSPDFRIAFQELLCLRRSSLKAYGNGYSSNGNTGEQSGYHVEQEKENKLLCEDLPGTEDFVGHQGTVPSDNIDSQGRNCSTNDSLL
Procedure: as §1, §2

β1 adrenoceptors = β1 adrenoceptors (Homo sapiens, UniProt P08588); test: Radioligand binding assay
β1 adrenoceptors, sequence (P08588 whole entry): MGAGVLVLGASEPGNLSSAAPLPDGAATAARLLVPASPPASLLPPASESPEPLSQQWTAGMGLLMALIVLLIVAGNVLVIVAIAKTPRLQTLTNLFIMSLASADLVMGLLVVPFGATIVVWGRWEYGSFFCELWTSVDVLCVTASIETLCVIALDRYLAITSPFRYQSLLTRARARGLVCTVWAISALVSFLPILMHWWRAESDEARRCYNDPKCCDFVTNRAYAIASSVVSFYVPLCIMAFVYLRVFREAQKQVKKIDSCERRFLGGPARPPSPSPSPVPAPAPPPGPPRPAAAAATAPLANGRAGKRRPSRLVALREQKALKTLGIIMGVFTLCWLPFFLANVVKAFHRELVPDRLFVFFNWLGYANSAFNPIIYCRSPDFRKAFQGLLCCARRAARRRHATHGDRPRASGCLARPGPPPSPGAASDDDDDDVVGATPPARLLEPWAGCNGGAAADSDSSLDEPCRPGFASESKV
Procedure: as §1, §2

D1 dopamine receptors = D1 dopamine receptors (Homo sapiens, UniProt P21728); test: Radioligand binding assay
D1 dopamine receptors, sequence (P21728 whole entry): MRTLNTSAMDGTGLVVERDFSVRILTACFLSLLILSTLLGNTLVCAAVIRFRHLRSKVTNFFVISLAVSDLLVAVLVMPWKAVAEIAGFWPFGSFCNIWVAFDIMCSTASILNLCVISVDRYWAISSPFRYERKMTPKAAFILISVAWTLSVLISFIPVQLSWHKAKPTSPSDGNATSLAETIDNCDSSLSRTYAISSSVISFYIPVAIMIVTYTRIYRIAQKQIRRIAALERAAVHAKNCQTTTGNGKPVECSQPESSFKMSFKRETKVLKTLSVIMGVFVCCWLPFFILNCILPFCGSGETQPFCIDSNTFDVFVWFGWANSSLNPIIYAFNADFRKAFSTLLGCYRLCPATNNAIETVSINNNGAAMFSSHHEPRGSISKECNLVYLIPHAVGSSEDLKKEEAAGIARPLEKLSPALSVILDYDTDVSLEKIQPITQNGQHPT
Procedure: as §1, §2

[3] = molecular target: 5-HT2C serotonin receptors (Homo sapiens, UniProt P28335); test: Radioligand binding assay
Procedure: as §1, §2

M1 muscarinic receptors = M1 muscarinic receptors (Homo sapiens, UniProt P11229); test: Radioligand binding assay
M1 muscarinic receptors, sequence (P11229 whole entry): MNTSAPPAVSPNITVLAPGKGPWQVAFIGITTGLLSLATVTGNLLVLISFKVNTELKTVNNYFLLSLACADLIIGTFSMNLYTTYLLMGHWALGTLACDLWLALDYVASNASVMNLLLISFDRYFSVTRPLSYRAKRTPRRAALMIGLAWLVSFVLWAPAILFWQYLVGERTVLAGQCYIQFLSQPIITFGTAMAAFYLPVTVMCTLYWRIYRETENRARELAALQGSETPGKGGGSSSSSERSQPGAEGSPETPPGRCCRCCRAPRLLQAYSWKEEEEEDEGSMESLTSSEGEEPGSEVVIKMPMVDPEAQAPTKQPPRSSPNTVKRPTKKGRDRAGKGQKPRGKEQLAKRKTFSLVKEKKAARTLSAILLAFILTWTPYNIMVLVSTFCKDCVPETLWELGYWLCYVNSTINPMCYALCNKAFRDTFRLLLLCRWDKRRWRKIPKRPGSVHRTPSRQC
Procedure: as §1, §2

μ opioid receptors = μ opioid receptors (Homo sapiens, UniProt P35372); test: Radioligand binding assay
μ opioid receptors, sequence (P35372 whole entry): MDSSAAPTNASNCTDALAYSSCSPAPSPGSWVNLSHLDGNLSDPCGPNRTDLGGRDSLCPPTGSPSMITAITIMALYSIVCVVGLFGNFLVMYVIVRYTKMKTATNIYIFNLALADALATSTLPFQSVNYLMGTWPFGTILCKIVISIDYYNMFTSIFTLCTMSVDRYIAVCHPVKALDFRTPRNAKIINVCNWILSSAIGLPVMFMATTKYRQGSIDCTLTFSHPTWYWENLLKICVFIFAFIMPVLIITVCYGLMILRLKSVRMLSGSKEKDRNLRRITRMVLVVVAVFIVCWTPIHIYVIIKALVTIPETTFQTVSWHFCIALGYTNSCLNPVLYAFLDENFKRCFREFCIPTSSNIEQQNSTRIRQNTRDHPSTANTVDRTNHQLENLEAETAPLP
Procedure: as §1, §2

[4] = molecular target: 5-HT2A serotonin receptors (Homo sapiens, UniProt P28223); test: Radioligand binding assay
5-HT2A serotonin receptors, sequence (P28223 whole entry): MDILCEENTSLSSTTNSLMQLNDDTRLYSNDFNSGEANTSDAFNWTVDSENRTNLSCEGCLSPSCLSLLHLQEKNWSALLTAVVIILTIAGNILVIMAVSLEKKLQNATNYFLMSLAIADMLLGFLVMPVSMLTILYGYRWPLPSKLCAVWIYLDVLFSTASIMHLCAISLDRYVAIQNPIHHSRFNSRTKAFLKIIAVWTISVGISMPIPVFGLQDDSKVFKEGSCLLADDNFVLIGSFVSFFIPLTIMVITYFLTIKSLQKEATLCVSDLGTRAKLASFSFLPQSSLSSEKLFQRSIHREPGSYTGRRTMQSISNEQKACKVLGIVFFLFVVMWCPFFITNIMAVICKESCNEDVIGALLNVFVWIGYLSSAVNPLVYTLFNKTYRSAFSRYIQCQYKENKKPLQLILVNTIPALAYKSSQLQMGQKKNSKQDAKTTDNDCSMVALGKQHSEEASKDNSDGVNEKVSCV
Procedure: as §1, §2

D2 dopamine receptors = D2 dopamine receptors (Homo sapiens, UniProt P14416); test: Radioligand binding assay
D2 dopamine receptors, sequence (P14416 whole entry): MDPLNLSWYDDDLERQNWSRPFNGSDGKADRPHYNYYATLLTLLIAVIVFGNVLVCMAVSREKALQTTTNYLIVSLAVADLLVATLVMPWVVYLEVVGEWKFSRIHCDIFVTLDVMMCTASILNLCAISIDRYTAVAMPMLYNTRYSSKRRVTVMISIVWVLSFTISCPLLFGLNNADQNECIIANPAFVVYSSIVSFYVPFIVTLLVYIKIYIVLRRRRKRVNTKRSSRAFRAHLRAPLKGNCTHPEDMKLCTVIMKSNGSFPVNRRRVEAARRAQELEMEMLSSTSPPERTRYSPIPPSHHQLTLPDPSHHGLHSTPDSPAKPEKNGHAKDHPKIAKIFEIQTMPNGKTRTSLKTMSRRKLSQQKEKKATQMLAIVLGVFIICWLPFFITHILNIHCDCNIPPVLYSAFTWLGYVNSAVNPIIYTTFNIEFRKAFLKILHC
Procedure: as §1, §2

α2A adrenoceptors = α2A adrenoceptors (Homo sapiens, UniProt P08913); test: Radioligand binding assay
α2A adrenoceptors, sequence (P08913 whole entry): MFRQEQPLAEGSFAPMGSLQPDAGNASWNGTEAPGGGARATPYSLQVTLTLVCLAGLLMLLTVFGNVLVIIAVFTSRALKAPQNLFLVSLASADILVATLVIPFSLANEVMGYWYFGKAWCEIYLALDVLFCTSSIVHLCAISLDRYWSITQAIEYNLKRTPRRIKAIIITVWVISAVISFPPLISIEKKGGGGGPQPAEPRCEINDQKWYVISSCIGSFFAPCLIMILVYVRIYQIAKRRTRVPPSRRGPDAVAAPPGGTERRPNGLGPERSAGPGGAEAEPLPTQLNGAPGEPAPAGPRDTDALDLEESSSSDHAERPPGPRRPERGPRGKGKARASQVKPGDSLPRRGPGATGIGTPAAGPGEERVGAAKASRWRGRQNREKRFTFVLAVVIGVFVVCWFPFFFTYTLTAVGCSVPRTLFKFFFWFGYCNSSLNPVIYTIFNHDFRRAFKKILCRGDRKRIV
Procedure: as §1, §2

α2B adrenoceptors = α2B adrenoceptors (Homo sapiens, UniProt P18089); test: Radioligand binding assay
α2B adrenoceptors, sequence (P18089 whole entry): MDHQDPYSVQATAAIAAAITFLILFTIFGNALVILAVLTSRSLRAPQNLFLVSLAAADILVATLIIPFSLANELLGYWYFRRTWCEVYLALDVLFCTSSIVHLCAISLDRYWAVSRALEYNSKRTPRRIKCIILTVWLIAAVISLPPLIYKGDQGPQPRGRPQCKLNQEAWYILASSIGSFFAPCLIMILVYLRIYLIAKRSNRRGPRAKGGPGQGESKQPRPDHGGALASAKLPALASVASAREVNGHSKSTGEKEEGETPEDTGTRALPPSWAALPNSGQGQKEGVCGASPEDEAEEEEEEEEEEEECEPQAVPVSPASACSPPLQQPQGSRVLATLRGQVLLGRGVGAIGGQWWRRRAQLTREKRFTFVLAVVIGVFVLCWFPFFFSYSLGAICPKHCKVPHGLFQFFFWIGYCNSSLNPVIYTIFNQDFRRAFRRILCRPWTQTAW
Procedure: as §1, §2

[5] = Plasma levels of nepicastat and N-acetyl metabolite in dogs, 2 mg/kg b.i.d.; type: in vivo, beagle dogs; details: 2 mg/kg bid, sampled 6 h after AM dose
Procedure: Male Beagle dogs (Marshall farms, North Rose, N.Y.) weighing between 9-16 kg were used in the study. The animals were allowed water ad libitum and given food once daily at ˜10.00 AM. Animals were randomly assigned to one of the following treatment groups (n=8/group): placebo (empty capsule), or nepicastat at 2 mg/kg b.i.d (4 mg/kg/day). Each animal received 2 doses daily, morning and afternoon (8-10 hours apart). Daily blood samples (10 ml) were drawn 6 h after the AM dose for measurement of plasma levels of nepicastat and catecholamines. The blood was collected in tubes containing heparin and glutathione and centrifuged at −4° C. within 1 h of collection. The plasma was separated and divided into two samples, one for the measurement of plasma catecholamines and the other for analysis of nepicastat.
Plasma NE, DA and EPI were anaylysed by HPLC using electrochemical detection. Plasma concentration of nepicastat was determined by HPLC using electrochemical detection.

[6] = system: dopamine and norepinephrine in the left ventricle; test: Left ventricle catecholamines after two iv doses; type: in vivo, Sprague-Dawley rats; details: 15 mg/kg iv x2, 12 h apart, 6 h after last
acetyl CoA synthetase = test: Selected enzyme assay; type: biochemical
Procedure: as §1, §2

Structure (SMILES): Cl.NCc1c[nH]c(=S)n1[C@H]1CCc2c(F)cc(F)cc2C1 [nepicastat, (S)-5-Aminomethyl-1-(5,7-difluoro-1,2,3,4-tetrahydronaphth-2-yl)-2,3-dihydro-2-thioxo-1H-imidazole hydrochloride]
- norepinephrine levels vs vehicle, cortex ([1]; 2.0 and 6.2 mg/kg b.i.d.): not significantly (p>0.05) different
- norepinephrine levels vs vehicle, mesenteric artery ([1]; 2.0 and 6.2 mg/kg b.i.d.): significantly (p<0.05) lower
- norepinephrine levels vs vehicle, striatum ([1]; 2.0 and 6.2 mg/kg b.i.d.): marginally (p<0.10) lower
- dopamine/norepinephrine ratio vs vehicle, mesenteric artery ([1]; 2.0 and 6.2 mg/kg b.i.d.): significantly (p<0.05) higher
- dopamine/norepinephrine ratio vs vehicle, mesenteric artery ([1]; 2.0 and 6.2 mg/kg b.i.d., listed as 2a): significantly raised
- dopamine/norepinephrine ratio vs vehicle, cortex and striatum ([1]; 2.0 and 6.2 mg/kg b.i.d., listed as RS-25560-197, hydrochloride): not significantly (p>0.05) different
- dopamine levels vs vehicle, cortex, striatum and mesenteric artery ([1]; 2.0 or 6.2 mg/kg b.i.d.): not significantly (p>0.05) different
- Ki (⊕1B adrenoceptors): > 10 µM
- Ki [2]: > 10 µM
- Ki (β2 adrenoceptors): > 10 µM
- Ki (β1 adrenoceptors): > 10 µM
- Ki (D1 dopamine receptors): > 10 µM
- Ki [3]: > 10 µM
- Ki (M1 muscarinic receptors): > 10 µM
- Ki (μ opioid receptors): > 10 µM
- Ki [4]: > 10 µM
- Ki (D2 dopamine receptors): > 10 µM
- Ki (α2A adrenoceptors): > 10 µM
- Ki (α2B adrenoceptors): > 10 µM
- time of peak plasma levels of the drug [5]: 2 days post-dose
- decrease in norepinephrine levels, left ventricle [6]: 51%
- increase in dopamine levels, left ventricle [6]: 472%
- increase in dopamine/norepinephrine ratio, left ventricle [6]: 1117%
- IC50 (acetyl CoA synthetase): > 10 µM
